The target in one assay is ACC2 (Homo sapiens, UniProt O00763). Briefly: In vitro ACC2 inhibition assay (ADP-Glo). It counts as biochemical. In short, it runs like this:
(§1)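 Enzyme (human ACC1 or ACC2) and compound, serially diluted 1:3 over 11 points from a 600 uM DMSO stock, were preincubated 15 min before substrate addition.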

For another assay, the target named is ACC1 (Homo sapiens, UniProt Q13085). The assay can be described thus: In vitro ACC1 inhibition assay (ADP-Glo). In kind it is biochemical. In short, it runs like this: as §1
Assay [1] is classed as in vivo, Sprague Dawley rats. Particulars: 2 weeks. Here is the method: The compounds of the present invention are readily adapted to clinical use as anti-obesity agents, insulin sensitizing agents, hyperinsulinemia-reversing agents, and hepatic steatosis-reversing agents. Such activity was determined by assessing the amount of test compound that reduces body weight and percentage body fat, reduces plasma insulin levels, blunts the rise and/or accelerates the reduction in plasma insulin and glucose levels in response to an oral glucose challenge, and reduces hepatic lipid content relative to a control vehicle without test compound in mammals. Sprague Dawley rats were fed either chow, a diet high in sucrose (for example AIN76A rodent diet; Research diets Inc. Cat #10001) or a diet high in fat (for example Research diets Inc. Cat #12451), for from 3-8 weeks prior to and during test compound administration.
For example, after a 3-8 week period of ad libitum feeding of either a chow, high-fat, or high-sucrose diet, animals that continued to receive the diet were treated for 1-8 weeks with test compound administered either by oral gavage in water or saline or water or saline containing 0.5% methylcelluose using a Q.D., B.I.D, or T.I.D. dosing regimen. At various times during study and at sacrifice (by CO2 asphyxiation), blood was collected either from the tail vein of an unanesthesized rat or from the vena cava of animals at sacrifice into heparin or EDTA containing tubes for centrifugal separation to prepare plasma. Plasma levels of parameters of lipid and carbohydrate metabolism known by those skilled in the art to be altered coincident with anti-obesity, insulin sensitizing, hyperinsulinemia-reversing, and hepatic steatosis-reversing actions, including but not limited to cholesterol and triglycerides, glucose, insulin, leptin, adiponectin, ketone bodies, free fatty acids, and glycerol, are measured using methods known to those skilled in the art.
The anti-obesity, insulin sensitizing, hyperinsulinemia-reversing, and hepatic steatosis-reversing potential of compounds of the present invention are exemplified through the actions of example compound I-181. […] Results of the reduction in total body weight measurements after treatment of high fat diet-fed DIO rats with compound I-181 are shown in FIG. 11. The degree of body weight reduction paralleled plasma drug levels measured at the end of the study. […] The plasma leptin levels for animals receiving the standard chow diet (lean controls) were also evaluated to determine the extent of parameter normalization produced by compound I-181. […] Results of the reduction in plasma insulin measurements after treatment of high fat diet-fed DIO rats with compound I-181 are shown in FIG. 12. […] Results of the reduction in hepatic triglyceride and cholesterol measurements after treatment of high fat diet-fed DIO rats with compound I-181 are shown in FIG. 13. […] Results of diet-induced obesity studies measuring the effect of compound I-181 on plasma cholesterol and plasma triglycerides are shown in Table 4 below. Data shown are mean values for n=14 animals per group±SEM.

The mark [2] stands for this setting: high-fat diet rats, 3, 10, 30 mg/kg once daily oral gavage.

Molecules are shown by their SMILES. Bounds are passed on as bounds.

Sequence of ACC2 (O00763 whole entry, species assumed): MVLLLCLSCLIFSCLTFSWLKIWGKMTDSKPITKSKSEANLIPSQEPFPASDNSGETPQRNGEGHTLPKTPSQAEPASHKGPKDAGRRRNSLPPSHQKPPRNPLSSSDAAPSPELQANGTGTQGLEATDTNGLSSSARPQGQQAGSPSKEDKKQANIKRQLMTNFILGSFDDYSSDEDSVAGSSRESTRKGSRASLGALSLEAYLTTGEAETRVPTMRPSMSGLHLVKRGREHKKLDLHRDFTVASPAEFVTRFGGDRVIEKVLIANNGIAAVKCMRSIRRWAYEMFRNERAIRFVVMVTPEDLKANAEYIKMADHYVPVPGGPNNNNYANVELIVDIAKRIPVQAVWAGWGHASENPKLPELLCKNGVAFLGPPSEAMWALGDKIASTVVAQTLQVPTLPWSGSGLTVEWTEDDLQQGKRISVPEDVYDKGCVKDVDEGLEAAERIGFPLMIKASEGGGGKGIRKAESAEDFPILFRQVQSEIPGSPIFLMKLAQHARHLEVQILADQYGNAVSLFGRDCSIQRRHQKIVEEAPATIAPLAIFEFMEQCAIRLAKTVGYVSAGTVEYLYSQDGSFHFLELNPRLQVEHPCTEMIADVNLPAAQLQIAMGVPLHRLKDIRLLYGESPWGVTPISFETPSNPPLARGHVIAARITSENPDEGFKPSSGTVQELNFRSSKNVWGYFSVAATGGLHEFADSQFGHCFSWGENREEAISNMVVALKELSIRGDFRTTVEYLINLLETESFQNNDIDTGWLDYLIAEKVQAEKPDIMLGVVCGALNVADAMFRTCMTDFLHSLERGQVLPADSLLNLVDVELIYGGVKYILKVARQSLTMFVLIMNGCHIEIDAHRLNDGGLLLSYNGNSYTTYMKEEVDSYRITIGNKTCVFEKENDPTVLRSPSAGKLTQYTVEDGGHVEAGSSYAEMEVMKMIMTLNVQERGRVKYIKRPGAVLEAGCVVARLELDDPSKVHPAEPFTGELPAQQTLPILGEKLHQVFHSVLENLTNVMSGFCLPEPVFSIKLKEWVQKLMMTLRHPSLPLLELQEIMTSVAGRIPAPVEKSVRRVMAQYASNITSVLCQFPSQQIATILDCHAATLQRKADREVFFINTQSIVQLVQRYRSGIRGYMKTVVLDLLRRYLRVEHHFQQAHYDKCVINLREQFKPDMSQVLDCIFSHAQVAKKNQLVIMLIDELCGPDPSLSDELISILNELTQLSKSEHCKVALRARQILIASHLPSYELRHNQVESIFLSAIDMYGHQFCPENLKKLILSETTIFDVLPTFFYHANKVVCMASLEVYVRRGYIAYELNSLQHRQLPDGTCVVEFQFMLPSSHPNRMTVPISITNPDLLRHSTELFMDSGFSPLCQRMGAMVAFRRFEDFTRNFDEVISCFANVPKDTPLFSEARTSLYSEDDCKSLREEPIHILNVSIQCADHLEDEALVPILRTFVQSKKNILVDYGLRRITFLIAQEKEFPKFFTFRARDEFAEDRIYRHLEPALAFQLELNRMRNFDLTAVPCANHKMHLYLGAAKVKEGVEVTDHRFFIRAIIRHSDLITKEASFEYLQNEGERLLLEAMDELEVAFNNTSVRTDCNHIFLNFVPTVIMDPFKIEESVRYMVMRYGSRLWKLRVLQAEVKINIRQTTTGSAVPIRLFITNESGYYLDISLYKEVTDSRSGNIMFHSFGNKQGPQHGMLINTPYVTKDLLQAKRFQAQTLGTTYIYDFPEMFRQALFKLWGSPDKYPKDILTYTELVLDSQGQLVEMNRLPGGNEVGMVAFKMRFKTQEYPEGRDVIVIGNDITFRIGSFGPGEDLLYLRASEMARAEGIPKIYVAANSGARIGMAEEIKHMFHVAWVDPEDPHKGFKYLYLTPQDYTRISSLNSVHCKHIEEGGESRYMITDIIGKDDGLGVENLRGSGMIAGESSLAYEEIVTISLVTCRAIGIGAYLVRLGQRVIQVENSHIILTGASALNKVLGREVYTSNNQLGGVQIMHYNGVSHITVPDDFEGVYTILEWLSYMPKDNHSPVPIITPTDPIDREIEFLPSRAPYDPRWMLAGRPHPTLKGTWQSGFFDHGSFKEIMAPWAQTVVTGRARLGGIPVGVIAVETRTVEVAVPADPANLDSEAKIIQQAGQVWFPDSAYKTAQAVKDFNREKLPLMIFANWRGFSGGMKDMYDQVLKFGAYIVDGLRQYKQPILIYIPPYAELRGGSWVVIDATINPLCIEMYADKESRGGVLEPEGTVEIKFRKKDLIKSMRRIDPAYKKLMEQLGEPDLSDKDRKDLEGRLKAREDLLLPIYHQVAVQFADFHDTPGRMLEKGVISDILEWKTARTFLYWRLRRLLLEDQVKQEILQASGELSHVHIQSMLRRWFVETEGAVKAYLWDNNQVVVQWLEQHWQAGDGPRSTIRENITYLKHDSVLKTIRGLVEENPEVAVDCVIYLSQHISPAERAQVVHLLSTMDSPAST

On to `COc1ccccc1[C@H](Cn1c(=O)n(C(C)(C)C(=O)O)c(=O)c2c(C)c(-c3ncco3)sc21)OC1CCOCC1` [I-181, 2-[1-[2-(2-methoxyphenyl)-2-(oxan-4-yloxy)ethyl]-5-methyl-6-(1,3-oxazol-2-yl)-2,4-dioxo-1H,2H,3H,4H-thieno[2,3-d]pyrimidin-3-yl]-2-methylpropanoic acid], for which the IC50 on ACC2 is less than 100 nM. This compound showed an IC50 at ACC1 of less than 100 nM. Further, in assay [1] (setting [2]), the plasma glucose levels result is given as “no concomitant reduction in plasma glucose levels” and the plasma leptin levels entry was “reduced by all compound I-181 doses evaluated”. Further, the “total body weight relative to vehicle-treated control animals” value in assay [1] (high-fat diet rats, 3, 10, 30 mg/kg once daily oral gavage, FIG. 11) is listed as “dose-dependent reduction in total body weight”. Also, the plasma insulin levels result in assay [1] (high-fat diet rats, 3, 10, 30 mg/kg once daily oral gavage, FIG. 12) is “reduced to near lean control levels by all three compound I-181 doses”. Also, the hepatic triglycerides entry in assay [1] (high-fat diet rats, 3, 10, 30 mg/kg once daily oral gavage, FIG. 13) is “reduced in a dose-dependent manner”. The “hepatic triglycerides at the highest dose” value in assay [1] (high-fat diet rats, highest dose evaluated (30 mg/kg)) is given as “normalized to lean control levels by the highest dose evaluated”.

Values taken from patent US9453026B2, “ACC inhibitors and uses thereof” (Gilead Apollo, Inc., priority 2011, dated 2016).
